Experimental data taken from ChEMBL document CHEMBL1133336, “Synthesis of a cyanopeptide-analogue with trypsin activating properties” (Bioorg Med Chem Lett, 2000).

Key:
[1] = biological target: T1, Serine protease 1 (Homo sapiens, UniProt P07477); test: Compound was tested for inhibition of trypsin
[2] = biological target: Plasminogen (Homo sapiens, UniProt P00747); test: Compound was tested for inhibition of plasmin
[3] = biological target: Prothrombin (Homo sapiens, UniProt P00734); test: Compound was tested for inhibition of thrombin
[4] = biological target: T1, Serine protease 1; test: Percent increase in the activity of trypsin by the compound at concentration between 20 mM and 40 mM

Sequence of Plasminogen (P00747 97-580 limits assumed): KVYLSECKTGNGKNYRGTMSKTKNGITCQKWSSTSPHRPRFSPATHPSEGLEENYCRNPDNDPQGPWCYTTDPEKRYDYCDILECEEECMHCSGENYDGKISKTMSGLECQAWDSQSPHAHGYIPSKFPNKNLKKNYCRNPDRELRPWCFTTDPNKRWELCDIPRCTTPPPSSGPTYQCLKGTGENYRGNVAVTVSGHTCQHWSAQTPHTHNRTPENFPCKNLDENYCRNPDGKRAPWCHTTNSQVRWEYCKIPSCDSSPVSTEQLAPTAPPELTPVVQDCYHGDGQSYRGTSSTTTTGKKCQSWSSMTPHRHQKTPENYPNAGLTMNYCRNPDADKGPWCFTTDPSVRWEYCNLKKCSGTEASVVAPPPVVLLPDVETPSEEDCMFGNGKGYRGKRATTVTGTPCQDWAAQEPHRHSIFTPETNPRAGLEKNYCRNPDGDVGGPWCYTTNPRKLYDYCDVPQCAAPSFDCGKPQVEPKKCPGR
Sequence of Plasminogen (P00747 581-810 limits assumed): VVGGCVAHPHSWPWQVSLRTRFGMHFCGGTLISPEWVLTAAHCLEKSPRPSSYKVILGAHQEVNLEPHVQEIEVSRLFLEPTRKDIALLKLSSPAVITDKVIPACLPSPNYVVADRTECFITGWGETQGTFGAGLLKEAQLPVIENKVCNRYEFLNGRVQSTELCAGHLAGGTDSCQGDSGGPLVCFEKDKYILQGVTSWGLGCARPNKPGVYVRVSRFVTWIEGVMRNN
T1 sequence (P07477 whole entry): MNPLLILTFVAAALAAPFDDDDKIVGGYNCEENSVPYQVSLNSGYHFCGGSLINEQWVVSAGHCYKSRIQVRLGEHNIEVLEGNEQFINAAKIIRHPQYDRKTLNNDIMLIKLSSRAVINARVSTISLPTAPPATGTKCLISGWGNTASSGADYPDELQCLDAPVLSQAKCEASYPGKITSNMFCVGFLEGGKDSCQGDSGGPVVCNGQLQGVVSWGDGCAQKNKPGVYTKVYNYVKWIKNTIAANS

IC50 [1] [nM] | IC50 [2] [nM] | IC50 [3] [nM] | Increase [4] [%] | SMILES
273 | 409 | 54.6 | – | N=C(N)N1CCC[C@H](NC(=O)C2CC3CCC(O)CC3N2C(=O)[C@@H](Cc2ccc(O)cc2)NC(=O)[C@H](O)Cc2ccc(OS(=O)(=O)O)cc2)C1O (stereo not given in full)
871 | 8710 | 10200 | – | CC[C@H](C)[C@H](NC(=O)C(O)Cc1ccc(O)c(Cl)c1)C(=O)N1C2CC(OS(=O)(=O)O)CCC2C[C@H]1C(=O)NCCCCN=C(N)N (stereo not given in full)
916 | 10700 | 15300 | – | CC[C@H](C)[C@H](NC(=O)C(O)Cc1ccc(O)cc1)C(=O)N1C2CC(OS(=O)(=O)O)CCC2C[C@H]1C(=O)NCCCCN=C(N)N (stereo not given in full)
– | – | – | 70 | CCC(C)C(NC(=O)CCc1ccc(O)cc1)C(=O)N1CCN(CCOC(=O)C2CCCN2)CC1 (stereo not given)
